Patent publication US4436732A, “Medicated compound for treating diseases infected by virus of the herpes group” (priority 1981, dated 1984)

Experiments:
teratogenic activity = assay type: in vivo, rats; details: 10 and 100 mg/kg per os daily for 30 days
Method: The study of the teratogenic activity of the active principle has been carried out on 15 couples of adult rats weighing 350 g divided into 3 groups of 5 couples in each. The females of the first group were daily administred 10 mg/kg of the active principle per os for 30 days until the birth of small rats; the females of the second group were administered 100 mg/kg of the active principle during the same period; the females of the third group were the control.

[1] = acute toxicity and tolerance; parameters: species or system white mice, rats, guinea pigs and dogs; details: in vivo
Method: The study of an acute toxicity and tolerance of the active principle and the medicated compound in the form of tablets has been carried out on white mice, rats, guinea pigs and dogs with different modes of administration.
The active principle and tablets of the are administered in the form of an aqueous suspension hypodermally, intraperitoneally and in stomach.

[2] = tested on: smooth muscles of an isolated section of a rat's small intestine; test: spasmolytic effect on acetylcholine and barium spasms of smooth muscles of an isolated section of small intestine
Excerpt: The cardiological effect of the active principle has been studied in experiments on an isolated cat's heart; the effect on electrocardiographic characteristics has been studied in experiments on rabbits; the vasodilative effect--on vessels of an isolated rabbit's ear; the spasmolytic effect--on acetylcholine and barium spasms of smooth muscles of an isolated section of a rat's small intestine.

[3] = neurotropic activity: influence upon the somnific effects of hexenal or chloralhydrate; assay type: in vivo; details: per os, 1, 10 and 100 mg/kg
Method: The neurotropic activity of the active principle is assessed through its influence upon the somnific effects of hexenal or chloralhydrate. The substance is introduced per os in the doses of 1, 10 and 100 mg/kg.

[4] = effect on hemodynamics and breathing, acute experiment on narcotized cats; assay type: in vivo; details: 50 mg/kg intra-stomach
Method: The study of the effect of this compound on the characteristics of hemodynamics and breathing has been carried out in an acute experiment on 6 narcotized cats (urethane 1.0 g/kg, chloralose 60 mg/kg) upon the intra-stomach administration of the active principle in the dose of 50 mg/kg. In each cat simultaneously recorded were the breathing frequency cardiac contraction frequency, systemic arterial pressure, amplitude of the volume blood flow in the abdominal aorta, amplitude of the brain rheograms and femur muscles rheorgrams.

[5] = antidiabetic effect: glucose in blood under alimentary carbohydrate load; assay type: in vivo, rabbits; details: per os
Method: To reveal the antidiabetic effect of the active principle, its effect on the content of glucose in rabbit's blood under the conditions of alimentary carbohydrate load has been studied. The active principle is administered in doses of 50 and 100 mg/kg once per os through a tube in a 1% starch paste. The experiment scheme is the following: the content of glucose in blood is determined in rabbit's blood on an empty stomach, and 40 minutes thereafter the content of glucose is again determined in blood. Afterwards, glucose is administered to the rabbits at the rate of 1.5 g/kg and the content of glucose in blood is determined 15, 30, 45, 60, 90 and 120 minutes after the administration thereof.

[6] = effect on acute exudative and chronical proliferative phases of inflammation; assay type: in vivo, mice
Method: The effect of the active principle on the acute exudative and chronical proliferative phases of inflammation in doses of 10 and 50 mg/kg has been studied upon per os administration to mice.

[7] = tested on: herpetic encephalitis (HV); test: experimental virus model of herpetic encephalitis of white mice; assay type: in vivo; details: for Average life span: control 4.78 ± 0.46; for Life span: control 12.7 ± 2.6; for Survival, %: control 70
Method: The chemotherapeutic effect of the active principle and the pharmaceutical composition on the whole has been studied on an experimental virus model of herpetic encephalitis of white mice. In the experiments more than 1,500 animals were used. To obtain the experimental encephalitis, white mice weighing 8-10 g have been infected intracerebrally. Prior to the infection the animal head skin is smeared with iodine, then ten-times dilutions of the virus-containing liquid in the volume of 0.03 ml are injected by means of a tuberculin syringe into the supraorbital area near the front median line to a depth of 1-2 mm directly into the brain. 3 to 7 days thereafter in the animals there were observed the disease signs (excitation, coordination disturbance, adynamia, paresis and paralysis) which were rapidly intensified and terminated in death. The experiments were assessed by the animal survival (in percent) and by the average life span of the test animals as compared to the control.
For treatment purposes the active principle or the medicated compound in the form of tablets is administered to the infected animals per os by means of a gastric tube as an aqueous suspension in the volume of 0.5 ml in doses of 20 to 500 mg/kg of the body weight 1 or 2 times per day. The tests have been carried out according to three schemes. In the first scheme, in order to preliminarily saturate the animal's organism with the active principle or the preparation were administered to the animals 1-2 days before the infection (preventive test). In the second scheme, to reveal the therapeutic effect of the active principle or the pharmaceutical composition, the compositions were introduced on the infection day and one or two days after the infection. In the third scheme (treatment-prophylaxis) the active principle or the medicated compound is administered the day before the infection or on the infection day, in both cases the treatment of the animal is continued for 5 to 7 days after the infection.
The most advantageous chemotherapeutic effect of the active principle or the pharmaceutical composition is manifested under the conditions of the treatment-prophylaxis application (third scheme).

[8] = once a day, 0.04 mg/mice, P above 0.5
[9] = once a day, 0.2 mg/mice, P above 0.25
[10] = once a day, 1 mg/mice, P above 0.25
[11] = once a day, 5 mg/mice, P above 0.5
[12] = two times a day, 0.04 mg/mice, P above 0.1
[13] = two times a day, 0.2 mg/mice, P below 0.05
[14] = two times a day, 1 mg/mice, P below 0.05
[15] = two times a day, 5 mg/mice, P above 0.1

Compound: O=c1c2cc(O)c(O)cc2oc2cc(O)c([C@@H]3O[C@H](CO)[C@@H](O)[C@H](O)[C@H]3O)c(O)c12 [active principle, 2-C-β-D-glucopyranosyl-1,3,6,7-tetraoxyxanthone]
- teratogenic properties (teratogenic activity): no teratogenic properties
- toxicity (overall) [1]: low-toxic
- LD50 ([1]; ip, intraperitoneal): 3000 to 4000 mg/kg
- LD50 ([1]; po, in-stomach): 10000 mg/kg
- LD50 ([1]; sc, hypodermal): > 5000 mg/kg
- spasmolytic effect [2]: no vasodilative and spasmolytic effect
- effect on duration of sleep caused by chloralhydrate [3]: no substantial effect
- effect on duration of sleep caused by hexenal [3]: no substantial effect
- other characteristics of hemodynamics ([4]; narcotized cats): not substantially changed
- systemic arterial pressure ([4]; narcotized cats): slightly lowers
- reduction of arterial pressure ([4]; 60 and 90 minutes): do not differ from the control
- reduction of breathing frequency vs control ([4]; 60 and 90 minutes): do not differ from the control
- reduction of breathing frequency ([4]; 10 minutes, P below 0.05): 21%
- reduction of breathing frequency ([4]; 30 minutes, P below 0.01): 32%
- effect on the glycemic curve ([5]; 50 mg/kg): no effect
- increase of glucose tolerance ([5]; 100 mg/kg, uncertainly increased): 14%
- exudative phase in chronical proliferative inflammation ([6]; model of chronical proliferative inflammation): somewhat suppresses
- development of the exudative phase of inflammation ([6]; per os, 50 mg/kg): suppresses the development of the exudative phase of inflammation
- antiphlogistic activity relative to formalin edema ([6]; per os, 50 mg/kg, P below 0.005): 12.7
- antiphlogistic activity relative to dextran edema ([6]; per os, 50 mg/kg, P below 0.05): 16.5
- lowering of penetration of skin vessels ([6]; per os, 50 mg/kg, P below 0.05): 15%
- antiphlogistic effect ([6]; per os, 10 and 50 mg/kg): slight antiphlogistic effect
- formation of granulation-fibrous tissue ([6]; proliferative stage of chronical inflammation): retards the formation of a granulation-fibrous tissue
- chemotherapeutic effect ([7]; administration in maximum shortest time of the infection (Table 2)): highest
- chemotherapeutic effect ([7]; administration two times a day (Table 1)): highest, statistically certain chemotherapeutic effect
- chemotherapeutic effect (time of death vs control) ([7]; first two schemes (preventive; therapeutic), per os): impossible to reveal statistically certain chemotherapeutic effect
- Average life span ([7]; on the infection day, 1 mg/mice, P above 0.25): 5.16 ± 0.91 days
- Average life span ([7]; on the infection day, 2 mg/mice, P above 0.5): 5.0 ± 0.56 days
- Average life span ([7]; on the infection day, 5 mg/mice, P below 0.05): 6.41 ± 0.71 days
- Life span [7, 8]: 13.3 ± 2.5 days
- Survival, % [7, 8]: 80%
- Life span [7, 9]: 14.0 ± 2.3 days
- Survival, % [7, 9]: 90%
- Life span [7, 10]: 14.0 ± 2.2 days
- Survival, % [7, 10]: 90%
- Life span [7, 11]: 13.1 ± 2.7 days
- Survival, % [7, 11]: 70%
- Average life span ([7]; one day before infection, 1 mg/mice, P 0.05): 5.6 ± 0.82 days
- Average life span ([7]; one day before infection, 2 mg/mice, P below 0.05): 6.05 ± 0.83 days
- Average life span ([7]; one day before infection, 5 mg/mice, P below 0.05): 6.13 ± 1.04 days
- Life span [7, 12]: 14.1 ± 0.9 days
- Survival, % [7, 12]: 90%
- Life span [7, 13]: 15.0 days
- Survival, % [7, 13]: 100%
- Life span [7, 14]: 15.0 days
- Survival, % [7, 14]: 100%
- Life span [7, 15]: 14.3 ± 2.5 days
- Survival, % [7, 15]: 90%
